US11591288B2, “Compositions and methods for treating atherosclerotic cardiovascular disease” (GAVISH-GALILEE BIO APPLICATIONS LTD., priority 2017, dated 2023)

How the values were obtained:
[1] = tested on: Human umbilical vein endothelial cells (HUVECs); assay: HDL-induced endothelial NO release, DAN assay; format: cell-based; conditions: HDL 50 μg/ml preincubated 3 h with 10, 20, 50 μg/ml; HUVECs 2 h
Procedure: HUVECs were stimulated for 2 h with HDL (50 μg/ml) preincubated with DMSO, lyso-DGTS and S1P at final concentrations of 10, 20, and 50 μg/ml for 3 h. Media were then collected and treated with nitrate reductase followed by analysis using the DAN assay. Data are expressed as NO concentration (μM) released by the cells. Each experiment was repeated separately at least three times. *p<0.05, ***p<0.0001 related to the control (HDL without lyso-DGTS or S1P). Statistics were analyzed using one-way annova Graphpad prism 5 software.
Human umbilical vein endothelial cells (HUVECs) were incubated for 2 hours with HDL preincubated with different concentration of lyso-DGTS or S1P for 3 hours, and NO production determined using 2,3-diaminonapthalene (DAN) assay.

PON1 = PON1 (Homo sapiens, UniProt P27169); conditions: Cohen et al., 2014; cited from earlier work
PON1, sequence (P27169 whole entry, species assumed): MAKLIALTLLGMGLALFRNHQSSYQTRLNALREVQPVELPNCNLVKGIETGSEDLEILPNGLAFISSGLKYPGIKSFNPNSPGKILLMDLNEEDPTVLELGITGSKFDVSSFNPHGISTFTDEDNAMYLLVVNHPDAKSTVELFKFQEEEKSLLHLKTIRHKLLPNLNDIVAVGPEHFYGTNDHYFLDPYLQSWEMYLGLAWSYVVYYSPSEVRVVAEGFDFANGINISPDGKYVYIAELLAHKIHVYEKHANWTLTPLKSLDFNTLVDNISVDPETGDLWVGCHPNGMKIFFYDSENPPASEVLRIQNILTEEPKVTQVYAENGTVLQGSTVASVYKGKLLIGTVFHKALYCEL

J774A.1 macrophages = conditions: as previously shown; cited from earlier work
rePON1 = conditions: 25° C.; Cohen et al., 2014; cited from earlier work

Compound	effect on HDL ability to induce endothelial NO release [1]	decrease of the ratio between HDL-PON1 and free-PON1 (PON1) [%]	effect on PON1 uptake by macrophage cells (J774A.1 macrophages)	Binding constant Ka to PON1 (rePON1) [M⁻¹]
CCCCCCCCCCCCC/C=C/[C@@H](O)[C@@H](N)COP(=O)(O)O [S1P, Sphingosine 1-Phosphate, reference compound]	significantly increased the HDL ability to induce endothelial NO release at a dose dependent manner	–	–	–
PC 16:0 18:2	–	50	enhance PON1 uptake by macrophage cells	1680
